Assay results reported in patent US20240024325A1, “Methods of Managing Cocaine or Other Drug Addictions” (Emory University, priority 2020, published 2024).
Entries after “also recorded” stand apart in the source; their conditions may differ.

What was measured:
Drosophila melanogaster = experiment: Cocaine-induced startle response and seizure activity in the Drosophila model; type: in vivo
Description: The percent time out of 45 seconds that each fly spent moving following a 42 cm drop was measured. Male flies exposed to cocaine spent less time moving than flies exposed to untreated food (p=2.13×10^−12). […] Error bars represent standard error.
Drosophila provides an advantageous model system for studies on cocaine consumption. […] In addition, flies develop sensitization to repeated intermittent exposure to cocaine. Startle behavior and the prevalence of seizure activity was measured in male and female flies. Measurements were taken following acute consumption of solid food, solid food supplemented with cocaine, or solid food supplemented with cocaine and ibrutinib. Male flies exposed to cocaine spent less time moving after being subjected to a mechanical startle (FIG. 3A). This is likely due to the occurrence of cocaine-induced seizures, which were scored as stationary periods.

mice = details: cited from earlier work

For `C=CC(=O)N1CCC[C@@H](n2nc(-c3ccc(Oc4ccccc4)cc3)c3c(N)ncnc32)C1` [ibrutinib, (R)-1-(3-(4-amino-3-(4-phenoxyphenyl)-1H-pyrazolo[3,4-d]pyrimidin-1-yl)piperidin-1-yl)prop-2-en-1-one], the “prevalence of cocaine-induced seizures during startle assay, female flies” value (Drosophila melanogaster; female flies, cocaine and ibrutinib vs cocaine only, did not reach statistical significance) was “Fewer cocaine-induced seizures”, the “percent time spent moving after mechanical startle (startle response)” value (Drosophila melanogaster; male and female flies, food with cocaine and ibrutinib vs cocaine only, 45 seconds after 42 cm drop, FIG. 3A) was “increase in the percent of time spent moving; also recorded: spent more time moving than flies that only consumed cocaine” and the “prevalence of cocaine-induced seizures during startle assay, male flies” value (Drosophila melanogaster; male flies, cocaine and ibrutinib vs cocaine only, FIG. 3B) was “significant decrease in the prevalence of seizures”.
In the case of `CC1=C(O)C(=O)[C@@H]2O[C@@H]2C1=O` [terreic acid], the binge drinking (mice) is listed as “reduced binge drinking in mice”.
